The test system of experiment [1] is Apt1 (DNA, aptamer) ACACGACGAGGGACGAGGAGTACTTGCCAACGATAACGTCGTTGGATCTGTCTGTGCCC
The experiment in a line: AuNP colorimetric (A650/A520). The note with it: NaCl 36.7 mM added, water, room temperature.

Experiment [2] deals with Apt-T2 (DNA, aptamer) CGAGGGACGTTGCCAACGATAACGTCGTTGGAT
The experiment in a line: AuNP colorimetric (A650/A520). The note with it: NaCl 36.7 mM added, water, room temperature.

Experiment [3] deals with Apt-M13 (DNA, aptamer) CGGGGGACGTTGCCAACGGTAACGTCGTTGGAT
The experiment in a line: AuNP colorimetric (A650/A520). The note with it: NaCl 36.7 mM added, water, room temperature.

Experiment [4] shares this test system. The experiment in a line: fluorescence enhancement of dye. To be noted: water, room temperature; aptamer 50 nM stock, 1X SGI.
Experiment [5] has as its system Apt-T1 (DNA, aptamer) CGAGGGACGAGGAGTACTTGCCAACGATAACGTCGTTGGAT
The experiment in a line: AuNP colorimetric (A650/A520). To be noted: NaCl 36.7 mM added, water, room temperature.

Experiment [6] concerns Apt-T3 (DNA, aptamer) TTGCCAACGATAACGTCGTTGGAT
The experiment in a line: AuNP colorimetric (A650/A520). To be noted: NaCl 36.7 mM added; water, room temperature; DEX titration.

Experiment [7] has as its system Apt-M9 (DNA, aptamer) CGAGGGACGTTGGCAACGGTAACGTCGTTGGAT
The experiment in a line: AuNP colorimetric (A650/A520). To be noted: NaCl 36.7 mM added; water, room temperature; DEX titration.

In experiment [8] the test system is FAM-Apt-M13 (DNA, aptamer) CGGGGGACGTTGCCAACGGTAACGTCGTTGGAT
Put plainly: graphene oxide fluorescence, saturation fit. To be noted: water, 37 °C 2 h; aptamer 10-250 nM varied, DEX 1.5 μM fixed; GO:aptamer mass 200:1.

Experiment [9] relates to Apt-M11 (DNA, aptamer) CGAGGGACGTTGCCAACGGTAAGGTCGTTGGAT
Put plainly: AuNP colorimetric (A650/A520). To be noted: NaCl 36.7 mM added; water, room temperature; DEX titration.

The test system of experiment [10] is Apt-M12 (DNA, aptamer) CGAGGGACGTTGCCAACGGTAACGTGGTTGGAT
The experiment in a line: AuNP colorimetric (A650/A520). The note with it: NaCl 36.7 mM added; water, room temperature; DEX titration.

Experiment [11] has as its system Apt-M15 (DNA, aptamer) CGAGGGACGTTGCCAACGATAAGGTGGTTGGAT
The experiment in a line: AuNP colorimetric (A650/A520). The note with it: NaCl 36.7 mM added; water, room temperature; DEX titration.

The test system of experiment [12] is FAM-Apt1 (DNA, aptamer) ACACGACGAGGGACGAGGAGTACTTGCCAACGATAACGTCGTTGGATCTGTCTGTGCCC
Put plainly: graphene oxide fluorescence, saturation fit. To be noted: water, 37 °C 2 h; aptamer 10-250 nM varied, DEX 1.5 μM fixed; GO:aptamer mass 200:1.

Consider `C[C@]12CCC(=O)C=C1CC[C@@H]1[C@@H]2[C@@H](O)C[C@@]2(C)[C@H]1CC[C@]2(O)C(=O)CO`, for which the binding entry in [1] (100 nmol/mL analog tested), in experiment [2] (100 nmol/mL analog tested) and in [3] (50 nmol/mL analog tested) was “no” in each case.

Regarding `CCCN(CCCN(C)C)c1cc(C=C2Sc3ccccc3N2C)c2ccccc2[n+]1-c1ccccc1`, the binding entry in experiment [4] is reported as “yes”.

As for `CCCC1O[C@@H]2C[C@H]3[C@@H]4CCC5=CC(=O)C=C[C@]5(C)[C@H]4[C@@H](O)C[C@]3(C)[C@]2(C(=O)CO)O1` (stereo partly shown), the binding result in experiment [5] (100 nmol/mL) is recorded as “yes”; in [1] (100 nmol/mL analog tested), “no”; in [2] (100 nmol/mL analog tested) it was “no”; in experiment [3] (50 nmol/mL analog tested), “no”.

Take `O=C(N[C@H](CO)[C@H](O)c1ccc([N+](=O)[O-])cc1)C(Cl)Cl`: the binding entry in [1] (100 nmol/mL analog tested), in experiment [2] (100 nmol/mL analog tested) and in [3] (50 nmol/mL analog tested) was “no” in each case.

For the molecule `CC(=O)OCC(=O)[C@@]1(O)CC[C@H]2[C@@H]3CCC4=CC(=O)C=C[C@]4(C)[C@H]3C(=O)C[C@@]21C`, the binding entry in [1] (100 nmol/mL analog tested), in [2] (100 nmol/mL analog tested) and in [3] (50 nmol/mL analog tested) was “no” each time.

As a reminder, the Kd is the free concentration of one partner at which half of the binding sites on the other are occupied at equilibrium, for simple one-to-one binding. High values mean a looser complex, low ones a tighter complex. Turning to `C[C@@H]1C[C@H]2[C@@H]3CCC4=CC(=O)C=C[C@]4(C)[C@@]3(F)[C@@H](O)C[C@]2(C)[C@@]1(O)C(=O)CO`, the binding result in experiment [6], in experiment [7], in experiment [5] (DEX titration), in experiment [1] (DEX titration), in experiment [2] (DEX titration) and in experiment [9] was “yes” each time. Besides, the binding entry in [10], in experiment [11] and in [3] (DEX titration) was “yes” throughout. For the same molecule, the values for the Kd in experiment [8] and in [12] were 200 ± 93 nM and 441 ± 180 nM, respectively.

Values taken from publication PMC9513367 (2022).
